{
  "source": "patent US20190336496A1",
  "about": "“SELECTIVE BCL-2 INHIBITORS IN COMBINATION WITH AN ANTI-PD-1 OR AN ANTI-PD-L1 ANTIBODY FOR THE TREATMENT OF CANCERS” (AbbVie Inc., priority 2018, published 2019)",
  "key": {"[1]": {"tested_on": "T-cell subsets in peripheral blood", "experiment": "T-cell subsets in peripheral blood of healthy volunteers", "assay_type": "in vivo, human", "design": "key: ↑: increase; ↓: decrease; ≈: no change", "settings": "one dose of 100 mg (or dose-equivalent); one day pre- vs seven days post-treatment; per subject", "experimental": "In a clinical study sponsored by AbbVie Inc. healthy volunteers were administered with one dose of 100 mg of Compound (I) (venetoclax) or a dose-equivalent of Compound (IV) in a solid formulation to deliver 100 mg of Compound (I). T-cell subsets in peripheral blood were measured one day pre- and seven days post-treatment by flow cytometry. In most of the tested subjects the fraction of CD4+ and CD8+ T effector memory and terminally differentiated effector memory cells increased, the proportion of CD8+ naïve T-cells has remained unchanged or decreased, and the proportion of CD4+ and CD8+ central memory T cells has decreased following treatment with either agent (Table 7 and FIG. 13)."}, "[2]": {"tested_on": "CMV-positive human PBMCs", "experiment": "CMV recall assay in the presence of anti-PD-1 antibody", "assay_type": "cell-based", "settings": "1 μg/mL CMV antigen, day 4", "experimental": "The cytomegalovirus (CMV) recall assay was used assess the functional effects of venetoclax on antigen-experienced immune cells and to evaluate the effect of venetoclax on anti-PD1 immune response. This assay used cytomegalovirus (CMV) antigen to stimulate pre-existing memory T-cells in CMV-positive human PBMCs. Human CMV-positive PBMCs (Cat.No:1001; Lot. No. 3634JY17) and CMV antigen (Cat. No. 1004) were purchased from Astarte Biologics. 2×10^5 CMV-positive PBMCs were stimulated with 1 μg/mL of CMV antigen with or without inhibitors +/−anti-PD-1 (nivolumab) in Roswell Park Memorial Institute (RPMI) media supplemented with 10% fetal bovine serum (FBS) and 1% antibiotics. On day 4, secreted IFNγ was measured by ELISA and the live cells were analyzed using a live dead stain, Zombie Green™ (BioLegend®) using LSRFortessa™ X-20 instrument (BD Biosciences). Venetoclax reduced the percentage of live cells compared to DMSO as single agent or in combination with nivolumab (FIG. 10D)."}, "[3]": {"tested_on": "CMV-positive CD8 T cells", "experiment": "CMV specific CD8 T cell response", "assay_type": "cell-based, human", "settings": "overnight (12-14 hours) incubation", "text": "The cytomegalovirus (CMV) specific assay was used to evaluate the effects of venetoclax on antigen-experienced CD8 T cells. This assay used CMV) peptide pp65 ([…], SEQ ID NO: 53) to stimulate CMV-positive CD8 T cells, and MART ([…]) peptide as a negative control. Human CMV-positive CD8 T cells and CMV peptide pp65 were purchased from Astarte Biologics and MART peptide as purchased from Genscript. 2×10^5 CMV-positive CD8 T cells were stimulated with 2×10^5 CMV pp65 peptide or MART peptide loaded T2 cells (2.5 μg/ml of peptide) with brefeldin-A in RPMI media supplemented with 10% fetal bovine serum (FBS). For measuring the IFNγ secretion in the supernatant, CMV+ CD8 T cells were activated with CMV pp65 peptide or MART peptide loaded T2 cells and incubated with venetoclax without brefeldin-A in RPMI media supplemented with 10% fetal bovine serum (FBS). […] Cells were analyzed using an LSRFortessa™ X-20 instrument (BD Biosciences). The secreted IFNγ in supernatant was measured by ELISA.\nCMV+ CD8 T cells were activated by CMV pp65 peptide ([…]) loaded on T2 cells and the effect of venetoclax on the function of these cells was assessed by measuring intra-cellular and secreted IFNγ (flow cytometry and ELISA as described above). […]"}, "[4]": {"tested_on": "NCI-H211", "experiment": "Venetoclax cell killing (CellTiter-Glo)", "assay_type": "cell-based, human", "experimental": "Solid tumor cell lines were obtained from American Type Culture Collection (ATCC, Manassas, Va.) or the National Cancer Institute (NCI) and cultured in humidified incubators at 37° C. (5% CO2) in appropriate media (specified by supplier) supplemented with 10% fetal bovine serum (FBS) or 10% human serum (HS). 24 hours after plating into 96-well or 384-well tissue culture plates, venetoclax was added to cells at various concentrations (typically 0.010 to 10 μM in half-log increments) to perform concentration-response assessments of cell killing. After 1 to 5 days of culture in the presence of venetoclax, cell viability was assessed using CellTiter-Glo® reagent (Promega). IC50 values were determined by non-linear regression analysis of the concentration response data (Table 5 and Table 6)."}},
  "note": "Where “and” joins values, the source holds several entries; their conditions need not be identical. Equal entries are not always repeated.",
  "data": [
    {"smiles": "CC1(C)CCC(CN2CCN(c3ccc(C(=O)NS(=O)(=O)c4ccc(NCC5CCOCC5)c([N+](=O)[O-])c4)c(Oc4cnc5[nH]ccc5c4)c3)CC2)=C(c2ccc(Cl)cc2)C1", "note": "[Compound (I), venetoclax]", "values": [
      {"measurement": "CD4+ T-Cells TCM", "setting": "[1]", "result": "↓"},
      {"measurement": "CD4+ T-Cells TEM", "setting": "[1]", "result": "↑"},
      {"measurement": "CD4+ T-Cells TEMRA", "setting": "[1]", "result": "↑ and ≈ (2×)"},
      {"measurement": "CD4+ T-Cells TN", "setting": "[1]", "result": "≈ and ↑ and ↓"},
      {"measurement": "CD8+ T-Cells TCM", "setting": "[1]", "result": "↓"},
      {"measurement": "CD8+ T-Cells TEM", "setting": "[1]", "result": "↑"},
      {"measurement": "CD8+ T-Cells TEMRA", "setting": "[1]", "result": "↑ (2×) and ≈"},
      {"measurement": "CD8+ T-Cells TN", "setting": "[1]", "result": "↓ and ≈ (2×)"},
      {"measurement": "IFNγ secretion from antigen specific CMV+ T cells (ELISA)", "setting": "[2]", "result": "remained comparable to DMSO control"},
      {"measurement": "percentage of live cells compared to DMSO", "setting": "[2]", "result": "reduced"},
      {"measurement": "number of CD8 T cells", "setting": "[3]", "result": "reduced"},
      {"measurement": "IC50", "setting": "[4]; Homo sapiens, NCI-H211, 48 h, Lung, 10% HS, 2 days", "result": 30, "unit": "nM"},
      {"measurement": "sensitivity at clinically relevant concentrations", "setting": "[4]; only line of Tables 5 and 6", "result": "showed sensitivity"}
    ]}
  ]
}
